The values below come from patent US12297190B2, “Modulators of STING (stimulator of interferon genes)” (PFIZER INC., priority 2019, dated 2025).

For orientation: Ki means the equilibrium dissociation constant of an inhibitor or competing ligand from its target.

This assay deals with R232-STING (Homo sapiens, UniProt Q86WV6, H232R). The assay can be described thus: biochemical.
R232-STING, sequence (Q86WV6 155-341 H232R): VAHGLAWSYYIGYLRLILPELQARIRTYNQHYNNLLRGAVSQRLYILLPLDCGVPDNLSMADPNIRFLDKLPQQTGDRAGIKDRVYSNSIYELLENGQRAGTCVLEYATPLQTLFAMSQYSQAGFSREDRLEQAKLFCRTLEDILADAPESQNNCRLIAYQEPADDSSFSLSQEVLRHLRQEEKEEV
In the case of `CCc1cc(-c2n[nH]c(-c3cc(C(N)=O)cc4c3cnn4C)n2)n(CC)n1` [ZZZ005, 4-[3-(1,3-diethyl-1H-pyrazol-5-yl)-1H-1,2,4-triazol-5-yl]-1-methyl-1H-indazole-6-carboxamide], the Ki is greater than 990 nM. With `CCn1nc(C)cc1-c1nnc(-c2cc(C(N)=O)cc3c2cnn3CC2CC3(CCN(C)CC3)C2)[nH]1` [ZZZ033, 4-[5-(1-ethyl-3-methyl-1H-pyrazol-5-yl)-4H-1,2,4-triazol-3-yl]-1-[(7-methyl-7-azaspiro[3.5]nonan-2-yl)methyl]-1H-indazole-6-carboxamide] the figure was 572 nM. With `CCn1nc(C)cc1-c1nnc(-c2cc(C(N)=O)cc3c2cnn3CCN2CCC(C)CC2)[nH]1` [ZZZ018, 4-[5-(1-ethyl-3-methyl-1H-pyrazol-5-yl)-4H-1,2,4-triazol-3-yl]-1-[2-(4-methylpiperidin-1-yl)ethyl]-1H-indazole-6-carboxamide] the figure was 748 nM; with `CCn1nc(C)cc1-c1nnc(-c2cc(C(N)=O)cc3c2cnn3CCCN(C)C)[nH]1` [ZZZ007, 1-[3-(dimethylamino)propyl]-4-[5-(1-ethyl-3-methyl-1H-pyrazol-5-yl)-4H-1,2,4-triazol-3-yl]-1H-indazole-6-carboxamide], 850 nM.

`CCn1nc(C)cc1-c1nnc(-c2cc(C(N)=O)cc3c2cnn3C(C)CN2CCCC2)[nH]1` (stereo not shown) [ZZZ040, 4-[5-(1-ethyl-3-methyl-1H-pyrazol-5-yl)-4H-1,2,4-triazol-3-yl]-1-[1-(pyrrolidin-1-yl)propan-2-yl]-1H-indazole-6-carboxamide]: the Ki was greater than 990 nM. The value for `CCn1ccc2c(-c3nc(-c4cc(C)nn4CCC(=O)O)n[nH]3)nc(C(N)=O)cc21` [ZZZ062, 3-{5-[5-(6-carbamoyl-1-ethyl-1H-pyrrolo[3,2-c]pyridin-4-yl)-1H-1,2,4-triazol-3-yl]-3-methyl-1H-pyrazol-1-yl}propanoic acid] was 543 nM. The value for `Cc1cc(-c2n[nH]c(-c3nc(C(N)=O)cc4c3cnn4C)n2)n(CCCN)n1` [ZZZ132, 4-{3-[1-(3-aminopropyl)-3-methyl-1H-pyrazol-5-yl]-1H-1,2,4-triazol-5-yl}-1-methyl-1H-pyrazolo[4,3-c]pyridine-6-carboxamide] was greater than 990 nM; that for `CCn1nc(C)cc1-c1nnc(-c2cc(C(N)=O)cc3c2cnn3CC2CCCN3CCCCC23)[nH]1` (stereo not shown) [ZZZ016, 4-[5-(1-ethyl-3-methyl-1H-pyrazol-5-yl)-4H-1,2,4-triazol-3-yl]-1-[(octahydro-2H-quinolizin-1-yl)methyl]-1H-indazole-6-carboxamide] was 826 nM.

`CCn1nc(C)cc1-c1n[nH]c(-c2cc(C(N)=O)cc3c2cnn3CCN2CC3CCC3C2)n1` (stereo not shown) [ZZZ110, 1-[2-(3-azabicyclo[3.2.0]heptan-3-yl)ethyl]-4-[3-(1-ethyl-3-methyl-1H-pyrazol-5-yl)-1H-1,2,4-triazol-5-yl]-1H-indazole-6-carboxamide] returned a Ki of 623 nM. The value for `CCn1nc(C)cc1-c1nnc(-c2cc(C(N)=O)cc3c2cnn3Cc2noc3c2CNCC3)[nH]1` [ZZZ068, 4-[5-(1-ethyl-3-methyl-1H-pyrazol-5-yl)-4H-1,2,4-triazol-3-yl]-1-[(4,5,6,7-tetrahydro[1,2]oxazolo[4,5-c]pyridin-3-yl)methyl]-1H-indazole-6-carboxamide] was greater than 990 nM. With `CCn1nc(C)cc1-c1nnc(-c2cc(C(N)=O)cc3c2cnn3[C@H]2C[C@H](NC)C2)[nH]1` [ZZZ066, 4-[5-(1-ethyl-3-methyl-1H-pyrazol-5-yl)-4H-1,2,4-triazol-3-yl]-1-[(1r,3r)-3-(methylamino)cyclobutyl]-1H-indazole-6-carboxamide] the figure was greater than 990 nM.

`CCn1nc(C)cc1-c1nnc(-c2cc(C(N)=O)cc3c2cnn3CCCCN(C)C)[nH]1` [ZZZ034, 1-[4-(dimethylamino)butyl]-4-[5-(1-ethyl-3-methyl-1H-pyrazol-5-yl)-4H-1,2,4-triazol-3-yl]-1H-indazole-6-carboxamide]: the Ki is greater than 990 nM. `CCn1nc(C)cc1-c1nnc(-c2cc(C(N)=O)cc3nn(CCN(C)C)cc23)[nH]1` [ZZZ006, 2-[2-(dimethylamino)ethyl]-4-[5-(1-ethyl-3-methyl-1H-pyrazol-5-yl)-4H-1,2,4-triazol-3-yl]-2H-indazole-6-carboxamide] returned a Ki greater than 990 nM.

Take `CCc1nc(C)n(C)c1-c1n[nH]c(-c2cc(C(N)=O)cc3c2cnn3C)n1` [ZZZ056, 4-[3-(4-ethyl-1,2-dimethyl-1H-imidazol-5-yl)-1H-1,2,4-triazol-5-yl]-1-methyl-1H-indazole-6-carboxamide]: the Ki is greater than 990 nM. With `CCn1nc(C)cc1-c1n[nH]c(-c2cc(C(N)=O)cc3c2cnn3CCN2CCO[C@H](CO)C2)n1` [ZZZ118, 4-[3-(1-ethyl-3-methyl-1H-pyrazol-5-yl)-1H-1,2,4-triazol-5-yl]-1-{2-[(2S)-2-(hydroxymethyl)morpholin-4-yl]ethyl}-1H-indazole-6-carboxamide] the figure was 538 nM; with `CCn1nc(C)c(O)c1-c1nc(-c2nc(C(N)=O)cc3[nH]ncc23)n(C)n1` [ZZZ084, 4-[3-(1-ethyl-4-hydroxy-3-methyl-1H-pyrazol-5-yl)-1-methyl-1H-1,2,4-triazol-5-yl]-1H-pyrazolo[4,3-c] pyridine-6-carboxamide], greater than 90.1 nM. The value for `CCn1nc(C)cc1-c1nc(-c2nc(C(N)=O)cc3c2cnn3C)n(CCNC)n1` [ZZZ126, 4-{3-(1-ethyl-3-methyl-1H-pyrazol-5-yl)-1-[2-(methylamino)ethyl]-1H-1,2,4-triazol-5-yl}-1-methyl-1H-pyrazolo[4,3-c]pyridine-6-carboxamide] was greater than 990 nM; that for `CCn1nc(C)cc1-c1nnc(-c2cc(C(N)=O)cc3c2cnn3CC[C@@H]2CCN(C)C2)[nH]1` [ZZZ035, 4-[5-(1-ethyl-3-methyl-1H-pyrazol-5-yl)-4H-1,2,4-triazol-3-yl]-1-{2-[(3S)-1-methylpyrrolidin-3-yl]ethyl}-1H-indazole-6-carboxamide] was greater than 990 nM; that for `Cc1nn(CC(CO)CO)c(-c2n[nH]c(-c3cc(C(N)=O)cc4c3cnn4C)n2)c1F` [ZZZ049, 4-(3-{4-fluoro-1-[3-hydroxy-2-(hydroxymethyl)propyl]-3-methyl-1H-pyrazol-5-yl}-1H-1,2,4-triazol-5-yl)-1-methyl-1H-indazole-6-carboxamide] was greater than 900 nM.

Molecule `CCn1nc(C)cc1-c1nnc(-c2cc(C(N)=O)cc3c2cnn3CCCN2CCO[C@@H](C)C2)[nH]1` (racemic) [ZZZ029, 4-[5-(1-ethyl-3-methyl-1H-pyrazol-5-yl)-4H-1,2,4-triazol-3-yl]-1-{3-[(2S)-2-methylmorpholin-4-yl]propyl}-1H-indazole-6-carboxamide] registered a Ki of 561 nM. With `CCn1nc(C)cc1-c1nc(CN)c(-c2nc(C(N)=O)cc3c2cnn3C)o1` [ZZZ051, 4-[4-(aminomethyl)-2-(1-ethyl-3-methyl-1H-pyrazol-5-yl)-1,3-oxazol-5-yl]-1-methyl-1H-pyrazolo[4,3-c] pyridine-6-carboxamide] the figure was 191 nM. On to `CCn1nc(C)cc1-c1n[nH]c(-c2cc(C(N)=O)cc3c2cnn3CCN2CC[C@H](OC)C2)n1` [ZZZ106, 4-[3-(1-ethyl-3-methyl-1H-pyrazol-5-yl)-1H-1,2,4-triazol-5-yl]-1-{2-[(3S)-3-methoxypyrrolidin-1-yl]ethyl}-1H-indazole-6-carboxamide], for which the Ki stood at 944 nM. This Ki lies about 4.9-fold higher than the previous one.
